Measurements taken from ChEMBL document CHEMBL1649206, “Emerging Klebsiella pneumoniae isolates coproducing KPC-2 and VIM-1 carbapenemases” (2009).
Converted amounts (≈) assume the structure as drawn.

Key:
[1] = tested on: Klebsiella pneumoniae; assay: Antimicrobial activity against Klebsiella pneumoniae isolate T-1504 expressing VIM-1 and KPC-2 genes by microdilution method; assay type: functional
[2] = tested on: Klebsiella pneumoniae; assay: Antimicrobial activity against Klebsiella pneumoniae isolate A-1797 expressing VIM-1 and KPC-2 genes by microdilution method; assay type: functional
[3] = tested on: Klebsiella pneumoniae; assay: Antimicrobial activity against Klebsiella pneumoniae isolate H-1406 expressing VIM-1 and KPC-2 genes by microdilution method; assay type: functional
[4] = tested on: Klebsiella pneumoniae; assay: Antimicrobial activity against Klebsiella pneumoniae isolate T-1780 expressing VIM-1 and KPC-2 genes by microdilution method; assay type: functional
[5] = tested on: Klebsiella pneumoniae; assay: Antimicrobial activity against Klebsiella pneumoniae isolate A-1760 expressing VIM-1 and KPC-2 genes by microdilution method; assay type: functional
[6] = molecular target: Metallo-beta-lactamase (Klebsiella pneumoniae) (UniProt Q5GN09); assay: Activity of VIM-1 in Klebsiella pneumoniae isolate A-1797
[7] = molecular target: Metallo-beta-lactamase (Klebsiella pneumoniae) (UniProt Q5GN09); assay: Activity of VIM-1 in Klebsiella pneumoniae isolate A-1760
[8] = molecular target: Carbapenem-hydrolyzing beta-lactamase KPC (Klebsiella pneumoniae) (UniProt Q9F663); assay: Activity of KPC-2 in Klebsiella pneumoniae isolate T-1780 assessed as compound hydrolysis in presence of EDTA; design: scale not given: the % may be the effect or the level left
Sequence of Carbapenem-hydrolyzing beta-lactamase KPC (Klebsiella pneumoniae) (Q9F663 whole entry): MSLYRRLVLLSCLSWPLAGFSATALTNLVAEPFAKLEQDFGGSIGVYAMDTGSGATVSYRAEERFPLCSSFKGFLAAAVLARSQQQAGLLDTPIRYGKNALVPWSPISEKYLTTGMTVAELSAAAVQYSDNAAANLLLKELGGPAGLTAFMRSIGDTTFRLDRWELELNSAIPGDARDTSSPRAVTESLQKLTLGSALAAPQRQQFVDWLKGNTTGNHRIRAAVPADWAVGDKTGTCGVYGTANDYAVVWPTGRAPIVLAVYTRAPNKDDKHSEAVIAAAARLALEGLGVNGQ

[9] = molecular target: Metallo-beta-lactamase (Klebsiella pneumoniae) (UniProt Q5GN09); assay: Activity of VIM-1 in Klebsiella pneumoniae isolate A-1797 assessed as compound hydrolysis in presence of EDTA; design: scale not given: the % may be the effect or the level left
[10] = molecular target: Metallo-beta-lactamase (Klebsiella pneumoniae) (UniProt Q5GN09); assay: Activity of VIM-1 in Klebsiella pneumoniae isolate H-1406
[11] = molecular target: Carbapenem-hydrolyzing beta-lactamase KPC (Klebsiella pneumoniae) (UniProt Q9F663); assay: Activity of KPC-2 in Klebsiella pneumoniae isolate T-1780
[12] = molecular target: Carbapenem-hydrolyzing beta-lactamase KPC (Klebsiella pneumoniae) (UniProt Q9F663); assay: Activity of KPC-2 in Klebsiella pneumoniae isolate H-1406
[13] = molecular target: Metallo-beta-lactamase (Klebsiella pneumoniae) (UniProt Q5GN09); assay: Activity of VIM-1 in Klebsiella pneumoniae isolate A-1760 assessed as compound hydrolysis in presence of EDTA; design: scale not given: the % may be the effect or the level left
[14] = molecular target: Carbapenem-hydrolyzing beta-lactamase KPC (Klebsiella pneumoniae) (UniProt Q9F663); assay: Activity of KPC-2 in Klebsiella pneumoniae isolate T-1504
[15] = molecular target: Metallo-beta-lactamase (Klebsiella pneumoniae) (UniProt Q5GN09); assay: Activity of VIM-1 in Klebsiella pneumoniae isolate T-1780 assessed as compound hydrolysis in presence of EDTA; design: scale not given: the % may be the effect or the level left
[16] = molecular target: Carbapenem-hydrolyzing beta-lactamase KPC (Klebsiella pneumoniae) (UniProt Q9F663); assay: Activity of KPC-2 in Klebsiella pneumoniae isolate T-1504 assessed as compound hydrolysis in presence of EDTA; design: scale not given: the % may be the effect or the level left
[17] = molecular target: Metallo-beta-lactamase (Klebsiella pneumoniae) (UniProt Q5GN09); assay: Activity of VIM-1 in Klebsiella pneumoniae isolate H-1406 assessed as compound hydrolysis in presence of EDTA; design: scale not given: the % may be the effect or the level left
[18] = molecular target: Carbapenem-hydrolyzing beta-lactamase KPC (Klebsiella pneumoniae) (UniProt Q9F663); assay: Activity of KPC-2 in Klebsiella pneumoniae isolate H-1406 assessed as compound hydrolysis in presence of EDTA; design: scale not given: the % may be the effect or the level left
[19] = molecular target: Metallo-beta-lactamase (Klebsiella pneumoniae) (UniProt Q5GN09); assay: Activity of VIM-1 in Klebsiella pneumoniae isolate T-1780
[20] = tested on: Klebsiella pneumoniae; assay: Antimicrobial activity against Klebsiella pneumoniae isolate T-1780 expressing VIM-1 and KPC-2 genes by microdilution method in presence of beta-lactamase inhibitor Tazobactam; assay type: functional
[21] = tested on: Klebsiella pneumoniae; assay: Antimicrobial activity against Klebsiella pneumoniae isolate T-1504 expressing VIM-1 and KPC-2 genes by microdilution method in presence of beta-lactamase inhibitor Tazobactam; assay type: functional
[22] = tested on: Klebsiella pneumoniae; assay: Antimicrobial activity against Klebsiella pneumoniae isolate A-1760 expressing VIM-1 and KPC-2 genes by microdilution method in presence of beta-lactamase inhibitor Tazobactam; assay type: functional
[23] = tested on: Klebsiella pneumoniae; assay: Antimicrobial activity against Klebsiella pneumoniae isolate A-1797 expressing VIM-1 and KPC-2 genes by microdilution method in presence of beta-lactamase inhibitor Tazobactam; assay type: functional
[24] = tested on: Klebsiella pneumoniae; assay: Antimicrobial activity against Klebsiella pneumoniae isolate H-1406 expressing VIM-1 and KPC-2 genes by microdilution method in presence of beta-lactamase inhibitor Tazobactam; assay type: functional
[25] = tested on: Klebsiella pneumoniae; assay: Antimicrobial activity against Klebsiella pneumoniae isolate T-1504 expressing VIM-1 and KPC-2 genes by microdilution method in presence of beta-lactamase inhibitor clavulanic acid; assay type: functional
[26] = tested on: Klebsiella pneumoniae; assay: Antimicrobial activity against Klebsiella pneumoniae isolate A-1797 expressing VIM-1 and KPC-2 genes by microdilution method in presence of beta-lactamase inhibitor clavulanic acid; assay type: functional
[27] = tested on: Klebsiella pneumoniae; assay: Antimicrobial activity against Klebsiella pneumoniae isolate T-1780 expressing VIM-1 and KPC-2 genes by microdilution method in presence of beta-lactamase inhibitor clavulanic acid; assay type: functional
[28] = tested on: Klebsiella pneumoniae; assay: Antimicrobial activity against Klebsiella pneumoniae isolate A-1760 expressing VIM-1 and KPC-2 genes by microdilution method in presence of beta-lactamase inhibitor clavulanic acid; assay type: functional
[29] = tested on: Klebsiella pneumoniae; assay: Antimicrobial activity against Klebsiella pneumoniae isolate H-1406 expressing VIM-1 and KPC-2 genes by microdilution method in presence of beta-lactamase inhibitor clavulanic acid; assay type: functional

Compound | MIC [1] [µg/mL] | MIC [2] [µg/mL] | MIC [3] [µg/mL] | MIC [4] [µg/mL] | MIC [5] [µg/mL] | further results
C[C@@H](O)[C@H]1C(=O)N2C(C(=O)O)=C(S[C@@H]3CN[C@H](C(=O)Nc4cccc(C(=O)O)c4)C3)[C@H](C)[C@H]12 | 32 (≈ 67.3 µM) | 8 (≈ 16.8 µM) | 64 (≈ 135 µM) | > 128 | 64 (≈ 135 µM) | –
CO/N=C(\C(=O)N[C@@H]1C(=O)N2C(C(=O)[O-])=C(C[N+]3(C)CCCC3)CS[C@H]12)c1csc(N)n1 | 16 (≈ 33.3 µM) | 16 (≈ 33.3 µM) | 128 (≈ 266 µM) | > 256 | 256 (≈ 533 µM) | –
C[C@H]1[C@H](NC(=O)/C(=N\OC(C)(C)C(=O)O)c2csc(N)n2)C(=O)N1S(=O)(=O)O [AZTREONAM] | 32 (≈ 73.5 µM) | 64 (≈ 147 µM) | 64 (≈ 147 µM) | 64 (≈ 147 µM) | 0.12 (≈ 0.276 µM) | –
CO/N=C(\C(=O)N[C@@H]1C(=O)N2C(C(=O)O)=C(COC(C)=O)CS[C@H]12)c1csc(N)n1 [CEFOTAXIME] | 8 (≈ 17.6 µM) | > 256 | 256 (≈ 562 µM) | > 256 | > 256 | –
CC(C)(O/N=C(\C(=O)N[C@@H]1C(=O)N2C(C(=O)[O-])=C(C[n+]3ccccc3)CS[C@H]12)c1csc(N)n1)C(=O)O [CEFTAZIDIME] | 16 (≈ 29.3 µM) | > 256 | > 256 | > 256 | > 256 | –
C[C@@H](O)[C@H]1C(=O)N2C(C(=O)O)=C(SCCNC=N)C[C@H]12 [IMIPENEM ANHYDROUS] | 2 (≈ 6.68 µM) | 2 (≈ 6.68 µM) | 32 (≈ 107 µM) | 32 (≈ 107 µM) | 32 (≈ 107 µM) | –
C[C@@H](O)[C@H]1C(=O)N2C(C(=O)O)=C(S[C@@H]3CN[C@H](C(=O)N(C)C)C3)[C@H](C)[C@H]12 [MEROPENEM] | – | 2 (≈ 5.22 µM) | 8 (≈ 20.9 µM) | 64 (≈ 167 µM) | 64 (≈ 167 µM) | Activity [6]: 42 U; Activity [7]: 80 U; Activity [8]: 64%; Activity [9]: 80%; Activity [10]: 55 U; Activity [11]: 76 U; Activity [12]: 55 U; Activity [13]: 100%; Activity [14]: 31 U; Activity [15]: 64%; Activity [16]: < 2%; Activity [17]: 57%; Activity [18]: 57%; Activity [19]: 76 U
CCN1CCN(C(=O)N[C@@H](C(=O)N[C@@H]2C(=O)N3[C@@H]2SC(C)(C)[C@@H]3C(=O)O)c2ccccc2)C(=O)C1=O [PIPERACILLIN] | 128 (≈ 247 µM) | – | – | > 256 | – | MIC [20]: > 256 µg/mL; MIC [21]: 64 µg/mL; MIC [22]: > 256 µg/mL; MIC [23]: > 256 µg/mL; MIC [24]: > 256 µg/mL
CC1(C)S[C@@H]2[C@H](NC(=O)[C@H](C(=O)O)c3ccsc3)C(=O)N2[C@H]1C(=O)O [TICARCILLIN] | 256 (≈ 666 µM) | – | > 256 | > 256 | – | MIC [25]: 8 µg/mL; MIC [26]: > 256 µg/mL; MIC [27]: > 256 µg/mL; MIC [28]: > 256 µg/mL; MIC [29]: 256 µg/mL
